This is an account of results in US4181732A, “1-Branched-alkylcarbonyl-3-(3,5-dihalophenyl)imidazolidine-2,4-diones” (Sumitomo Chemical Company, Limited, priority 1977, dated 1980).

Assay [1] relates to black spot of pear (Alternaria kikuchiana). Put plainly: Protective activity test on black spot of pear. Type of assay: in vivo. To be noted: 500 ppm active ingredient; pear var. 20-Seiki, sprayed 7 days before inoculation; no treatment 77.8.
Assay [2] has as its system Alternaria leaf spot of apple (Alternaria mali). In words: Protective activity test on Alternaria leaf spot of apple. The assay is classed as in vivo. To be noted: 500 ppm active ingredient; apple var. Indo, sprayed 6 days before inoculation; no treatment 79.6.
For assay [3], the system named is blue mold of orange (Penicillium italicum). In words: Protective activity test on blue mold of orange. To be noted: orange fruits var. Unshu dipped 1 minute, index 0-5, 7 days after inoculation, no treatment 5.0. The assay is classed as in vivo. On the procedure:
Protective activity test on blue mold of orange (Penicillium italicum): Orange fruits (var.: Unshu) were well washed with water and air-dried. Each of the emulsifiable concentrates containing the test compounds was diluted with water to a required concentration and the air-dried orange fruits were dipped in the aqueous solution for 1 minute. After air-drying, the surface of the fruit was inoculated by spraying a spore suspension of Pencillium italicum cultured in a potato agar medium for 5 days. […] The results are shown in the mean value of disease index.

The test system of assay [4] is wild (susceptible) strain of Alternaria kikuchiana. Put plainly: Fungicidal activity test: mycelial growth inhibition on agar plate, wild susceptible strain. The assay is classed as cell-based. To be noted: 96 h, 27° C., 4 days, read-out: Percentage of growth inhibition, wild susceptible strain; for inhibition at 1 ppm: 1 ppm active ingredient; for inhibition at 10 ppm: 10 ppm active ingredient.

The subject of assay [5] is fungicide-resistant strain of black spot fungus (Alternaria kikuchiana) resistant to Polyoxin. In words: Fungicidal activity test on fungicide-resistant pathogens: mycelial growth inhibition on agar plate, Polyoxin-resistant strain. The assay is classed as cell-based. To be noted: 96 h, 27° C., 4 days, read-out: Percentage of growth inhibition, fungicide-resistant strain; for inhibition at 1 ppm: 1 ppm active ingredient; for inhibition at 10 ppm: 10 ppm active ingredient.

On to `CCC(C)C(=O)N1CC(=O)N(c2cc(Cl)cc(Cl)c2)C1=O` (centres unmarked) [Compound 6], for which the Disease severity was determined as 5.5% in assay [1] and 8.1% in assay [2].
On to `CCCC(C)C(=O)N1CC(=O)N(c2cc(Cl)cc(Cl)c2)C1=O` (centres unmarked) [Compound 9], for which the Disease severity in assay [1] is listed as 2.1%; in assay [2] it was 1.7%.
With `CC(=O)N1CC(=O)N(c2cc(Cl)cc(Cl)c2)C1=O` [reference compound], the “Mean value of disease index” value in assay [3] (200 ppm active ingredient) is 2.8.
Turning to `CC(C)(C)CC(=O)N1CC(=O)N(c2cc(Cl)cc(Cl)c2)C1=O` [Compound 4], the inhibition at 1 ppm was found to be 64% in assay [4] and 61% in assay [5]. For the same compound, the inhibition at 10 ppm in assay [4] was 92%; in assay [5], 93%. In addition, the Disease severity worked out at 8.9% in assay [1] and 5.7% in assay [2]. In addition, the “Mean value of disease index” value in assay [3] (100 ppm active ingredient) turned out to be 0.4.
`CC(C)(C)C(=O)N1CC(=O)N(c2cc(Cl)cc(Cl)c2)C1=O` [Compound 3]: the figures for the Disease severity in assay [1] and in assay [2] were 7.4% and 9.6%, respectively. Also, the “Mean value of disease index” value in assay [3] (100 ppm active ingredient) was found to be 0.2.
Regarding `CC(C)CCC(=O)N1CC(=O)N(c2cc(Cl)cc(Cl)c2)C1=O` [Compound 10], the Disease severity in assay [1] amounted to 9.8%; in assay [2], 9.9%.
As for `CC(C)CC(=O)N1CC(=O)N(c2cc(Cl)cc(Cl)c2)C1=O` [Compound 2], the inhibition at 1 ppm in assay [4] was 78%; in assay [5], 76%. The figures for the inhibition at 10 ppm in assay [4] and in assay [5] were 96% and 95%, respectively. The figures for the Disease severity in assay [1] and in assay [2] were 3.0% and 2.4%, respectively. In addition, the “Mean value of disease index” value in assay [3] (100 ppm active ingredient) was found to be 0.0.
Regarding `CCC(C)CC(=O)N1CC(=O)N(c2cc(Cl)cc(Cl)c2)C1=O` (centres unmarked) [Compound 7], the Disease severity in assay [1] is given as 3.7%; in assay [2], 4.1%.
As to `CCC(=O)N1CC(=O)N(c2cc(Cl)cc(Cl)c2)C1=O` [drawing 43, reference compound], the “Mean value of disease index” value in assay [3] (200 ppm active ingredient) is reported as 3.0.
Turning to `CC(C)CC(=O)N1CC(=O)N(c2cc(Br)cc(Br)c2)C1=O` [Compound 5], the Disease severity in assay [1] is recorded as 2.6%; in assay [2], 3.0%. For the same compound, the “Mean value of disease index” value in assay [3] (100 ppm active ingredient) is listed as 0.1.
In assay [2], `CCC(=O)N1CC(=O)N(c2cc(Cl)cc(Cl)c2)C1=O` [drawing 40, reference compound] gave a Disease severity of 36.8%.
Regarding `CCC(=O)N1CC(=O)N(c2cc(Cl)cc(Cl)c2)C1=O` [drawing 37, reference compound], the inhibition at 1 ppm was determined as 49% in assay [4] and 45% in assay [5]. Besides, the inhibition at 10 ppm in assay [4] came to 68%; in assay [5], 69%.
For `CC(C)C(=O)N1CC(=O)N(c2cc(Cl)cc(Cl)c2)C1=O` [Compound 1], the Disease severity in assay [1] was determined as 4.3%; in assay [2] it was 7.2%. In addition, the “Mean value of disease index” value in assay [3] (100 ppm active ingredient) stood at 0.5.
On to `CCC(CC)C(=O)N1CC(=O)N(c2cc(Cl)cc(Cl)c2)C1=O` [Compound 8], for which the Disease severity turned out to be 4.0% in assay [1] and 3.6% in assay [2].
In assay [1], `CCC(=O)N1CC(=O)N(c2cc(Cl)cc(Cl)c2)C1=O` [drawing 38, reference compound] displayed a Disease severity of 31.6%.

In general, inhibition refers to the share of the control response that was lost under treatment.
